Assays:
Type in all cases: biochemical
[1] = tested on: nucleotides G, C, and A (Sequence GA, Sequence CG, Sequence AG); experiment: Exclusivity of the other nucleotides (G, C, and A), elongation luminescence; details: CG, AG, luminescence normalized to dCTP, dGTP, dTTP as 1
Experimental: (§1) Incorporation into nucleic acid was evaluated as follows. First, one of the above sequences was used as a target. Next, the primer was made to complementarily bind to the target. Then, an elongation experiment was carried out using the respective nucleic acid substrates for that sample. The synthesized nucleic acid substrate requires an affinity (complementary characteristics) with nucleotide T, and exclusivity of the other nucleotides (G, C, and A). The affinity with nucleotide T was evaluated using the Sequence TG and the primer. The exclusivity of the other nucleotides (G, C, and A) was evaluated using the respective Sequence GA, Sequence CG, and Sequence AG, and the primer. In addition, Sequence 5T was used for the evaluation of an ability of continuous incorporation into nucleotide T.
(§2) A sequencing method using a stepwise chemical reaction is described below. First, 35 μL of ultrapure water, 5 μL of oligo DNA (10 μM) of analysis object (target), and 5 μL of a primer (20 μM) were mixed with 5 μL of a hybridization buffer (10 mM Tris-Acetate, 20 mM Mg-Acetate, pH 7.75) (a sample solution: the final volume was 50 μL). Then, the sample solution was heated at 94° C. for 20 seconds, and reacted at a Tm temperature of the primer for 2 minutes. After that, 0.5 μL, (target: […], primer: […]) of this sample solution, 20 of a luminescence reagent which is designated in Condition 2 of Table 1, and 0.2 μL of a polymerase enzyme (the final concentration: 0.05 U/4) were mixed to prepare a reaction reagent (the final volume was 20.7 μL). To this reaction reagent was added 0.4 μL of 100 μM nucleic acid substrate (the final concentration 2 μM). When nucleic acid elongation occurs, bioluminescence derived from pyrophosphate of the elongation reaction product can be observed. The reaction has a luminescence peak a few seconds after the reaction initiation. […] This luminescence peak value is virtually proportional to the amount of generated pyrophosphate. Measurement of the peak value enables a degree of nucleic acid elongation to be estimated.
Next, with regard to the respective synthetic substrates, the exclusivity of the other nucleotides (G, C, and A) was assessed using each of Sequence GA, Sequence CG, and Sequence AG and the primer. […] In addition, a background luminescence component of the respective substrates was compensated by taking its difference into account in a manner similar to that of the preceding figures.

DNA Sequence S2 = experiment: Sequence analysis by stepwise chemical reaction (pyrogram), PPDK system, Condition 4; details: DNA Sequence S2 (3 consecutive nucleotides)
Experimental: Therefore, a sequence having 3 consecutive nucleotides of T was analyzed for comparison. Analyzed DNA Sequence S2 and a primer P3 are described below.
Of note is that Sequence P3 represents a primer sequence. This primer can complementarily bind to the underlined portion of the above DNA Sequence S2. FIGS. 16 to 20 show the results of a sequence analysis. In addition, the reagent conditions were listed together in the following Table 3.
In this experiment, an enzyme system which converts PPi into ATP has employed an enzyme system in which PPi and AMP are converted into ATP by PPDK as described in the conventional technique (Patent Literature 4). The items of the figure are identical to those of FIG. 15. At the bottom of the respective figures, the injected nucleotide types are designated. At the top, the nucleotide types which have been incorporated into a complementary DNA sequence of analysis object are designated. The substrate was injected in the order of “bases A, T, C, and G”, and 7 cycles were analyzed. As indicated in the target sequence, in this analysis, two regions (Cycle 4 and Cycle 7) having 3 consecutive nucleotides of A incorporated are present. Because of this, a difference in the ability of continuous incorporation of a nucleic acid substrate that is used as a nucleotide A can be assessed. Hereinafter, the details are described.
First, three kinds of the substrates (A3d, dATPαS, and C^7dATP) having the final concentration of 2 μM were used. The results of a sequence analysis will be described (FIGS. 16 to 20). […] At the time of dispensing A (surrounded by the circle ◯) which represented the injected nucleotide type, A3d was used. […] Accordingly, as the signal corresponding to A at the first cycle indicated, background luminescence was observed. Due to this phenomenon, the luminescence signal corresponding to nucleotide A constantly included the increased background luminescence. The symbol • in the figure denotes elongation luminescence corresponding to a nucleotide sequence of a sample. In contrast, the major luminescence without corresponding to the nucleotide sequence is represented by the symbol ∇. […] At the time of dispensing A (surrounded by the circle ◯) which represented the injected nucleotide type, dATPαS was used. The resulting pyrogram and the nucleotide sequence of a sample were compared. The symbol • in the figure denotes elongation luminescence corresponding to a nucleotide sequence of a sample. In contrast, the major luminescence without corresponding to the nucleotide sequence is represented by the symbol ∇. […] At the time of dispensing A (surrounded by the circle ◯) which represented the injected nucleotide type, C^7dATP was used. […] Accordingly, as the signal corresponding to A at the first cycle indicated, big background luminescence was observed. Due to this phenomenon, the luminescence signal corresponding to nucleotide A constantly included the increased background luminescence. The symbol x in the figure denotes just a background luminescence signal. The symbol • denotes elongation luminescence corresponding to a nucleotide sequence of a sample. However, the symbol (•) denotes inclusion of both elongation-derived luminescence and background luminescence. In contrast, the major luminescence without corresponding to the nucleotide sequence is represented by the symbol ∇.

[2] = tested on: 5 consecutive nucleotides of T (Sequence 5T); experiment: Ability of incorporation into consecutive nucleotides of T (Sequence 5T), three consecutive injections; details: for Continuous incorporation into 5 consecutive T (luminescence derived from incomplete elongation): three injections
Experimental: as §1, §2
Next, by using Sequence 5T, the ability of incorporation of the respective synthetic substrates into consecutive nucleotides of T was evaluated by the following procedure. The reaction reagent was prepared by using Sequence 5T as a target oligo in the same manner as in the case of evaluation of elongation of one nucleotide as described before. In this case, a target oligo 111 and a primer 112 form a complementary strand binding as depicted in FIG. 11(1). Due to the above, when dATP is dispensed into this reaction reagent as a substrate, five molecules of the substrate are consecutively elongated per target molecule as a primer having the substrate at the 3′ end 113, thereby releasing five molecules of pyrophosphate. If the elongation for all the five nucleotides is not completed, a portion of the nucleotide T remains in a single-stranded state. Because of this, when substrate dATP is dispensed again, the portion is elongated only in the case where a portion of incomplete elongation remains. Therefore, the release of pyrophosphate can be detected as luminescence. […] In addition, substrate dCTP, which is complementary to nucleotide G 114, was subsequently dispensed twice to detect luminescence. […]

[3] = final concentration 2 μM, 7 cycles

Row | SMILES | Exclusivity of the other nucleotides (G, C, and A) [1] | Sequence analysis result as substitute for dATP (DNA Sequence S2; [3]) | Rate of Incomplete Elongation after the First Injection (%) ([2]; 5 consecutive nucleotides, final concentration 4 μM, E1 = luminescence of 2nd and 3rd injections / total of 1st to 3rd) | Rate of Incomplete Elongation after the Second Injection (%) ([2]; 5 consecutive nucleotides, final concentration 4 μM, E2 = luminescence of 3rd injection / total of 1st to 3rd) | Continuous incorporation into 5 consecutive T (luminescence derived from incomplete elongation) ([2]; final concentration 2 μM, then dCTP) | Continuous incorporation into 5 consecutive T (luminescence derived from incomplete elongation) ([2]; final concentration 4 μM (substrate amount doubled)) | Sequence analysis result as substitute for dATP (DNA Sequence S2; final concentration 4 μM)
1 | Nc1ncnc2c1c(/C=C/C(=O)NCCc1ccncc1)cn2[C@H]1CC(O)[C@@H](COP(=O)(O)OP(=O)(O)OP(=O)(O)O)O1 (some centres unmarked) [A3d] | excellent exclusivity | up to the nucleotide G at Cycle 7, a sequence analysis was found to be able to be definitely carried out | – | – | – | – | –
2 | Nc1ncnc2c1ncn2[C@H]1C[C@H](O)[C@@H](COP(O)(=S)OP(=O)(O)OP(=O)(O)O)O1 (some centres unmarked) [dATPαS] | – | incomplete elongation was able to be presumed to occur | 36.8 ± 7.8% | 13.6 ± 5.1% | luminescence derived from incomplete elongation was detected even at the third injection | luminescence derived from incomplete elongation was detected at the third injection | the incomplete elongation is not completely resolved

Reference: patent publication US8853373B2, “Method and reagent for gene sequence analysis” (Hitachi, Ltd., priority 2009, dated 2014)
